Assays:
Sphaerotheca fuliginea = assay: Cucumber Powdery Mildew (CPM) protectant test in the greenhouse; format: in vivo; settings: 300 g/ha, 100 is total disease control, 0 is no disease control
Summary of the method: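 Compounds in acetone-methanol-water (1:1:2) sprayed onto cucumber cv. "Bush Champion" (cotyledons plus one true leaf, 13 days old), dried 4 h. Inoculated 1 day later with 2×10^5 spores/ml; disease control (%) rated after 7 days in greenhouse.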

Pyricularia oryzae = assay: whole plant or invertebrate; format: in vivo; settings: protectant, 300 g/ha, greenhouse; 100 is total disease control, 0 is no disease control

| Compound | Cucumber Powdery Mildew (CPM) protectant fungicide data, percent control (Sphaerotheca fuliginea) | Rice Blast (RB) protectant fungicide data, percent control (Pyricularia oryzae) |
| --- | --- | --- |
| CCOC(=O)CN1N=C(c2ccc(F)c(F)c2)NCC1=O [Compound 125] | 50 percent control | 50 percent control |
| O=C1CN(CCCl)C(c2cc(Cl)cc(Cl)c2)=NN1CC(F)(F)F [Compound 126] | 0 percent control | 50 percent control |
| C=CCN1N=C(c2cc(Cl)cc(Cl)c2)NCC1=O [Compound 128] | 0 percent control | 90 percent control |
| CCCCN1N=C(c2cc(Cl)cc(Cl)c2)N(C(=O)SC)CC1=O [Compound 129] | 75 percent control | 50 percent control |
| CCCCN1N=C(c2cc(Cl)cc(Cl)c2)N(C(=O)OC)CC1=O [Compound 130] | 0 percent control | 50 percent control |
| C#CCN1CC(=O)N(CCCC)N=C1c1cc(Cl)cc(Cl)c1 [Compound 131] | 75 percent control | 80 percent control |
| C=CCOC(=O)N1CC(=O)N(CCCC)N=C1c1cc(Cl)cc(Cl)c1 [Compound 132] | 50 percent control | 85 percent control |
| C=CCOC(=O)N1CC(=O)N(CC(F)(F)F)N=C1c1cc(Cl)cc(Cl)c1 [Compound 134] | 50 percent control | 80 percent control |
| C=COC(=O)N1CC(=O)N(CCCC)N=C1c1cccc(Cl)c1Cl [Compound 136] | 80 percent control | 100 percent control |
| C=CC(=O)N1CC(=O)N(CC(F)(F)F)N=C1c1cc(Cl)cc(Cl)c1 [Compound 137] | 0 percent control | 85 percent control |
| C=CC(=O)N1CC(=O)N(CCCC)N=C1c1cc(Cl)cc(Cl)c1 [Compound 138] | 0 percent control | 99 percent control |
| O=C1CNC(c2ccc(F)c(F)c2)=NN1Cc1ccccc1 [Compound 139] | 50 percent control | 99 percent control |
| O=C1CNC(c2ccco2)=NN1CC(F)(F)F [Compound 140] | 50 percent control | 0 percent control |
| O=C1CNC(c2cnc3ccccc3c2)=NN1CC(F)(F)F [Compound 141] | 50 percent control | 85 percent control |
| O=C1CNC(c2ccc(-c3ccc([N+](=O)[O-])cc3)cc2)=NN1CC(F)(F)F [Compound 142] | 0 percent control | 80 percent control |
| O=C1CNC(c2ccc3ccccc3c2)=NN1CC(F)(F)F [Compound 143] | 50 percent control | 98 percent control |
| O=C1CNC(c2ccc(-c3csnn3)cc2)=NN1CC(F)(F)F [Compound 144] | 0 percent control | 85 percent control |
| CCCOc1ccc(C2=NN(CC(F)(F)F)C(=O)CN2)cc1 [Compound 145] | 0 percent control | 90 percent control |
| O=C1CNC(c2ccc(-c3ccccc3)cc2)=NN1CC(F)(F)F [Compound 146] | 85 percent control | 95 percent control |

From patent US7494996B2 (priority 2000, dated 2009)
